This is an account of results in publication PMC9412534, “Diindolylmethane Derivatives: New Selective Blockers for T-Type Calcium Channels” (Membranes, 2022).

The target of experiment [1] is T1, recombinant hCaV3.2 channels (Homo sapiens, UniProt O95180).
T1 construct: the only CaV3.2-expressing cells described
Description: Whole-cell patch-clamp (QPatch), CaV3.2. The format is cell-based. The following applies: for extent of block of CaV3.2 whole-cell inward Ca2+ current: QPatch; for IC50: whole-cell current, holding potential −90 mV, n = 3–5. The protocol: The human embryonic kidney 293 (HEK 293) cell lines (from Emmanuel Bourinet, Montpellier, France) stably expressing CaV3.2 or CaV3.3 were cultured under 5% carbon dioxide at 37 °C in Dulbecco’s Modified Eagle Medium (DMEM) Glutamax (Gibco, Life Technologies, Carlsbad, CA, USA) supplemented with 10% (v/v) fetal bovine serum (FBS), 100 U/mL penicillin, 100 μg/mL streptomycin (Gibco, Life Technologies, Carlsbad, CA, USA), and 750 μg/mL geneticin (G418) (Gibco, Life Technologies). The Chinese Hamster Ovary (CHO) cell lines (Emmanuel Bourinet, Montpellier, France) expressing CaV3.1 were cultured under 5% carbon dioxide at 37 °C in Alpha Minimum Essential Media (MEM) Glutamax (Gibco, Life Technologies), supplemented with 10% (v/v) fetal bovine serum (FBS) and 300 μg/mL geneticin (G418) (Gibco, Life Technologies). The human neuroblastoma SH-SY5Y cells (Victor Diaz, Goettingen, Germany) were cultured under 5% carbon dioxide at 37 °C in RPMI 1640 antibiotic-free medium (Invitrogen, Carlsbad, CA, USA), supplemented with 15% FBS and 2 mM GlutaMAX™ (Invitrogen). D-PBS (Gibco, Life Technologies) was used to wash the cells, and 0.25% Trypsin-EDTA (Gibco, Life Technologies) was used to detach cells from the flask surface. They were split in a ratio of 1:5 (ideally 1000 cells/cm^2) when they reached 70–80% confluence (every 2–3 days). Transiently transfected CaV3.1 HEK293 T cells were used in FLIPR Assays. HEK 293 T cells were cultured under 5% carbon dioxide at 37 °C in DMEM supplemented with 10% (v/v) FBS. D-PBS was used to wash the cells, and 0.25% Trypsin-EDTA was used to detach cells from the flask surface. The cells were split and seeded at 6 million cells per T175 flask, to reach 70–80% confluence after 24 h. The next day, 12 μg DNA of human CaV3.1 was incubated in 900 μL serum-free DMEM with 36 μL FuGENE HD transfection reagent (Promega Corporation, Madison, WI, USA) (1:3 DNA/Fugene ratio) for 20 min, and then the mixture was added into the cell flask slowly, drop by drop. After the transfection, the cells were cultured under 5% carbon dioxide at 37 °C for 24 h and then moved to a 28 °C incubator.
Whole-cell patch-clamp experiments were performed on an automated electrophysiology platform QPatch 16 X (Sophion Bioscience A/S, Ballerup, Denmark) in single-hole configuration using 16-channel planar patch chip QPlates (Sophion Bioscience A/S). The extracellular recording solution contained, in mM: TEACl 157, MgCl2 0.5, CaCl2 5, and HEPES 10; pH 7.4 adjusted with TEAOH; and osmolarity 320 mOsm. The intracellular pipette solution contained, in mM: CsF 140, EGTA 1, HEPES 10, and NaCl 10; pH 7.2 adjusted with CsOH; and osmolarity 325 mOsm. Compounds were diluted in extracellular recording solution with 0.1% BSA at the concentrations stated (DMSO ≤ 0.1%), and the effects of compounds were compared to the control (extracellular solution with 0.1% BSA) parameters within the same cell. Compounds’ incubation time varied from two (for the highest concentration) to five (for the lowest concentration) minutes by applying the voltage protocol 10–30 times at 10 s intervals to ensure steady-state inhibition was achieved. The effects of compounds were obtained using 200 ms voltage steps to peak potential from a holding potential of −90 mV. Current–voltage (I–V) relationships were obtained by holding the cells at a potential of −100 mV before applying 50 ms pulses to potentials from −75 to +50 mV every 5 s in 5 mV increments. […]

The subject of another experiment is MCF-7 cells. Description: Cell viability MTT assay, MCF-7. It is filed as cell-based, human. The following applies: for viability at 50 µM: MCF7, 50 µM, n = 4; for IC50: n = 3. The protocol:
(§1) Human breast cancer cell line MCF-7 and T-47D, lung cancer cell line A549, and colon cancer cell line HT-29 were cultured under 5% carbon dioxide at 37 °C in DMEM Glutamax (Gibco, Life Technologies) supplemented with 10% (v/v) FBS. They were split in a ratio of 1:3–1:6 (ideally 2–4 × 10,000 cells/cm^2) when they reached 70–80% confluence using 0.25% Trypsin-EDTA. For cell viability MTT assay, cells were seeded into 96-well clear bottom culture plates (Corning, Lowell, MA, USA) at a density of 5 × 10^3 cells/well and settled at 37 °C for 24 h.
(§2) Seeded cells were treated with various concentrations of compounds for desired time period (24, 48 and 72 h). After the treatments, the media were removed from each well, and replaced with 25 μL of serum-free media and 25 μL of MTT Reagent (cat. no., ab211091; Abcam, Cambridge, MA, USA). The plate was then incubated at 37 °C for 3 h, and 75 μL of MTT Solvent (cat. no., ab211091; Abcam) was added into each well after incubation. The absorbance was evaluated at 590 nm. Cell-wells treated with 0.1% DMSO were used as positive control and no cell-wells were used as background control.

Another experiment deals with A549 cells. The experiment can be described thus: Cell viability MTT assay, A549. The following applies: for viability at 50 µM: A549, 50 µM, n = 4; for IC50: n = 3. It is filed as cell-based, human. As for the experimental part:
as §1, §2

Another experiment concerns HT-29 cells. The experiment can be described thus: Cell viability MTT assay, HT-29. The format is cell-based, human. The following applies: for viability at 50 µM: HT-29, 50 µM, n = 4; for IC50: n = 3; for preferential anti-proliferative activity on HT-29: versus MCF-7, T-47D, A549. As for the experimental part: as §1, §2
[2] abbreviates: Homo sapiens, MCF7, 72 h, 72 h treatment.
Setting [3] is: Homo sapiens, A549, 72 h, 72 h treatment.
Setting [4] is: Homo sapiens, HT-29, 72 h, 72 h treatment.

“Also recorded” adds a separate entry of the source.

T1 sequence (O95180 whole entry): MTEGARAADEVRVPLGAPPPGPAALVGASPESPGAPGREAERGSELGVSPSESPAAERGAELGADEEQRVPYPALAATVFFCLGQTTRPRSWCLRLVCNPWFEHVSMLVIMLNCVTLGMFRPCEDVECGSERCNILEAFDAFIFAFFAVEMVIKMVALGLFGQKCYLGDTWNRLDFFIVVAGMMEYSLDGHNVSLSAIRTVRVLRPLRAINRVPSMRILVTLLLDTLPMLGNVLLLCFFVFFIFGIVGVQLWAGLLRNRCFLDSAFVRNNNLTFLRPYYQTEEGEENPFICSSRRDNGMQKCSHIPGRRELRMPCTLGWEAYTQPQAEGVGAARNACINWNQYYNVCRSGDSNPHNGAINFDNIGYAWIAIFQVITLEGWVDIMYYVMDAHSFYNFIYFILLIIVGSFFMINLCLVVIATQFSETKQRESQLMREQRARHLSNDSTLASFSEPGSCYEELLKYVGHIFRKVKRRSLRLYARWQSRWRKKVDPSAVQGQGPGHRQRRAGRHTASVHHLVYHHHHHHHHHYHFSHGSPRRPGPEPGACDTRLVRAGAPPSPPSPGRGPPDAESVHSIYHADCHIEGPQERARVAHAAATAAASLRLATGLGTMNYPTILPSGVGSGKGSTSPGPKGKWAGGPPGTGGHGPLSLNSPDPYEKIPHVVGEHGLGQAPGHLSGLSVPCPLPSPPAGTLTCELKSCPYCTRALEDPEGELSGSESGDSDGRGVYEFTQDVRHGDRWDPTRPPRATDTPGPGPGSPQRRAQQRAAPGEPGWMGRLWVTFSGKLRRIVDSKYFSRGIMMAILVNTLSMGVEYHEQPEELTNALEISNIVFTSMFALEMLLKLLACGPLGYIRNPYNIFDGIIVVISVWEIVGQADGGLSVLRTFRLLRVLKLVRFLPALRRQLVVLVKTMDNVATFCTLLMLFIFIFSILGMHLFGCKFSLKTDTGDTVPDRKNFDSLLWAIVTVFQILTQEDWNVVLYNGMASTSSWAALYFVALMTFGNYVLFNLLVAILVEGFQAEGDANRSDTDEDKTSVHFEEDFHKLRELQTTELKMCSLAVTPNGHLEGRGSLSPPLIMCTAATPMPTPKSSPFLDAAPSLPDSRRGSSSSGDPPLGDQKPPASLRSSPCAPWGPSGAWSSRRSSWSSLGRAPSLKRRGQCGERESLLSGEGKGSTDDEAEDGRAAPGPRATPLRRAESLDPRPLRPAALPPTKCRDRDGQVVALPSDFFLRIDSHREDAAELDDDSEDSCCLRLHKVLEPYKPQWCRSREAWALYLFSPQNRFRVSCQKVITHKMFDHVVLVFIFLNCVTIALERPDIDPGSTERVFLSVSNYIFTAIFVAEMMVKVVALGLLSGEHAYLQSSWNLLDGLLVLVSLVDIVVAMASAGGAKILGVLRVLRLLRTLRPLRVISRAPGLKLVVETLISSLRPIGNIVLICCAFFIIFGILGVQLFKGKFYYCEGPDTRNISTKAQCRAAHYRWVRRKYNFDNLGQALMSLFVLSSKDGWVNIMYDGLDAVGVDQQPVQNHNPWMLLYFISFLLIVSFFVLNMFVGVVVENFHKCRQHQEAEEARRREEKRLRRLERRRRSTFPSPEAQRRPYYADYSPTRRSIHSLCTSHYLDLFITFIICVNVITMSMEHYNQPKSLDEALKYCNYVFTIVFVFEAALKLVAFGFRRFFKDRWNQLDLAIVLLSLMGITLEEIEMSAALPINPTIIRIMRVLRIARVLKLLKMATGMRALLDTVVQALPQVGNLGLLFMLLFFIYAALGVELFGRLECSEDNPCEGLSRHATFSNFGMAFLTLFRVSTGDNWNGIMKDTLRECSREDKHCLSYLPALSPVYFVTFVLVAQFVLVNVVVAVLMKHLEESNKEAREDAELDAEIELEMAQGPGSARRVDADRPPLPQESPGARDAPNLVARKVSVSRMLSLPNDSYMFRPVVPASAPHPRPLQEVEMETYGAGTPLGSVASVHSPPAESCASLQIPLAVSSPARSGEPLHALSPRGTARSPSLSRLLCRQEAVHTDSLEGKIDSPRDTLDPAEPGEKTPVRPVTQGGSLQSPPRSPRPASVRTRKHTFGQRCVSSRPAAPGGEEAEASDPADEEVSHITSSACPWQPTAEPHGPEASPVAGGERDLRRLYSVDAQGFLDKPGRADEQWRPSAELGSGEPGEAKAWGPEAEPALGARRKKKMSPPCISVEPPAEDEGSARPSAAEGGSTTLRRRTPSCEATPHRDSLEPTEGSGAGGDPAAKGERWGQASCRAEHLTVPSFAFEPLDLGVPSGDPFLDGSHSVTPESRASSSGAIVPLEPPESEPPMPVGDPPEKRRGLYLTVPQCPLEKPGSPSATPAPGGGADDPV

On to `O=C(c1c[nH]c2ccccc12)c1c[nH]c2ccccc12` [DIM-one, 3,3′-diindolylmethanone], for which, in experiment [1], the “extent of block of CaV3.2 whole-cell inward Ca2+ current” value is reported as “poor inhibition”. The IC50 was about 50 µM in experiment [1], 42 µM with MCF-7 cells (setting [2]), 66 µM in the experiment with A549 cells (setting [3]) and 20 µM with HT-29 cells (setting [4]). In addition, the viability at 50 µM in the experiment with MCF-7 cells (Homo sapiens, 72 h treatment) was found to be 52.3 ± 3.12%; with A549 cells (Homo sapiens, 72 h treatment) it was 81.3 ± 3%; with HT-29 cells (Homo sapiens, 72 h treatment) it was 5.95 ± 0.19%. The “better antiproliferative effect on HT-29 cell viability than on the other three cancer cell lines” value in the experiment on HT-29 cells (72 h treatment) is listed as at least 2 fold. Further, in the experiment with HT-29 cells, the “preferential anti-proliferative activity on HT-29” value is recorded as “preferential anti-proliferative activity”.

On to `O=C(c1c[nH]c2cc(Br)ccc12)c1c[nH]c2cc(Br)ccc12` [IV], for which the IC50 with MCF-7 cells (72 h treatment) came out at 6.1 µM; in the experiment with MCF-7 cells (Homo sapiens, MCF7, 24 h, 24 h treatment), 9.8 µM; in the experiment with MCF-7 cells (setting [2]), 6 µM; with A549 cells (72 h treatment), 3.5 µM; in the experiment with A549 cells (Homo sapiens, A549, 24 h, 24 h treatment) it was 8 µM; in the experiment on A549 cells (Homo sapiens, A549, 48 h, 48 h treatment), 4.7 µM. The IC50 with A549 cells (setting [3]) was 3 µM; with HT-29 cells (72 h treatment), 1.2 µM; with HT-29 cells (Homo sapiens, HT-29, 24 h, 24 h treatment), 5.9 µM; in the experiment with HT-29 cells (Homo sapiens, HT-29, 48 h, 48 h treatment), 1.6 µM; in the experiment with HT-29 cells (setting [4]), 1 µM. The viability at 50 µM turned out to be 6.35 ± 0.46% in the experiment with MCF-7 cells (Homo sapiens, 72 h treatment); 2.92 ± 0.29% in the experiment with A549 cells (Homo sapiens, 72 h treatment); 0.85 ± 0.21% in the experiment with HT-29 cells (Homo sapiens, 72 h treatment). The “better antiproliferative effect on HT-29 cell viability than on the other three cancer cell lines” value in the experiment with HT-29 cells (72 h treatment) is on record as ~ 3 fold. Also, the “improved potency on HT-29 cell viability compared with the other three compounds” value with HT-29 cells (72 h treatment) is listed as over 10 fold. The “preferential anti-proliferative activity on HT-29” value in the experiment with HT-29 cells was “preferential anti-proliferative activity”.

In the case of `O=C(c1cn(Cc2ccccc2)c2ccccc12)c1cn(Cc2ccccc2)c2ccccc12` [IX, bis(1-benzyl-1H-indol-3-yl)methanone], in experiment [1], the “extent of block of CaV3.2 whole-cell inward Ca2+ current” value was “partially blocked; also recorded: only partial inhibition” and the IC50 came out at 2.97 ± 0.29 µM.

`c1ccc2c(Cc3c[nH]c4ccccc34)c[nH]c2c1` [DIM, 3,3′-diindolylmethane, reference compound]: the IC50 in experiment [1] was found to be 21.1 ± 1.19 µM; in the experiment with MCF-7 cells (setting [2]), 27 µM; in the experiment on A549 cells (setting [3]) it was 47 µM; in the experiment on HT-29 cells (setting [4]), 33 µM. In addition, the viability at 50 µM in the experiment with MCF-7 cells (Homo sapiens, 72 h treatment) was 3.65 ± 0.24%; in the experiment with A549 cells (Homo sapiens, 72 h treatment) it was 55.6 ± 1.13%; in the experiment on HT-29 cells (Homo sapiens, 72 h treatment), 25.3 ± 2.44%.
